Assay results from ChEMBL document CHEMBL3991601, “The target landscape of clinical kinase drugs” (Science, 2017).
The source made the active and inactive calls.

Experiments:
[1] = target: Dual specificity testis-specific protein kinase 2 (Homo sapiens, UniProt Q96S53)
[2] = target: Myosin-10 (Homo sapiens, UniProt P35580)
[3] = target: Cell division cycle 7-related protein kinase (Homo sapiens, UniProt O00311)
[4] = target: T1, Isoleucine--tRNA ligase, mitochondrial (Homo sapiens, UniProt Q9NSE4)
T1 sequence (Q9NSE4 whole entry): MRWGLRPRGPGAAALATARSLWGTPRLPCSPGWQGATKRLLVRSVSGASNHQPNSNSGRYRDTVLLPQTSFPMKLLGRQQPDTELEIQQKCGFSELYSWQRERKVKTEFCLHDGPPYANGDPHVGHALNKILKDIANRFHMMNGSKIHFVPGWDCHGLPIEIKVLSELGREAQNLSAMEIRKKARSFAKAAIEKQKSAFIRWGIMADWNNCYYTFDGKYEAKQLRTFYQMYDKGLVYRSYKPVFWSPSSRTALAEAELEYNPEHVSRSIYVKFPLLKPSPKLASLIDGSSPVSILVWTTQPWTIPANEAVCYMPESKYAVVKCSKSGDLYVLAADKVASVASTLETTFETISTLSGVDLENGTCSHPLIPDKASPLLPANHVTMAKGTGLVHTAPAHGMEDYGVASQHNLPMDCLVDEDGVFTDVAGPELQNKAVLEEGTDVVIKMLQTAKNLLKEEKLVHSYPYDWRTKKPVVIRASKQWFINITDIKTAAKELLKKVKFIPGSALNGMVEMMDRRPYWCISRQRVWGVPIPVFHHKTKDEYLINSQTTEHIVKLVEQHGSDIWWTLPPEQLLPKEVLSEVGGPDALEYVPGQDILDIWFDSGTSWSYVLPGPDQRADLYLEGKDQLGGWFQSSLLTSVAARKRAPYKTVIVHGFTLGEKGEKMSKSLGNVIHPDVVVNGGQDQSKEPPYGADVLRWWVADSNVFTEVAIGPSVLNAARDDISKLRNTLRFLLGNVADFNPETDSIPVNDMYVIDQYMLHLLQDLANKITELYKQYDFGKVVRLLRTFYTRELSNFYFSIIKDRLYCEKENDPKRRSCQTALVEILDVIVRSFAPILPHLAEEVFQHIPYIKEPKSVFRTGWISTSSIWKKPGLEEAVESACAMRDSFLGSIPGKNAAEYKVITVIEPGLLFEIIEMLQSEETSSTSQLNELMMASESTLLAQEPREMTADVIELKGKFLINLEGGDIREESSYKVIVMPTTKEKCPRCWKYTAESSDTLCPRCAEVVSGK

[5] = target: T2, UMP-CMP kinase (Homo sapiens, UniProt P30085)
T2 sequence (P30085 whole entry): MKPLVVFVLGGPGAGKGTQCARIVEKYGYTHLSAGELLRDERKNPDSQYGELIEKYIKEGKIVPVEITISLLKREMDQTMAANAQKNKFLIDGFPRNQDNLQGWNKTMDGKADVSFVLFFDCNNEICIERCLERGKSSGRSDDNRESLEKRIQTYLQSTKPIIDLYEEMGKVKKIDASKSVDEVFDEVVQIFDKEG

[6] = target: T3, Eukaryotic translation initiation factor 5B (Homo sapiens, UniProt O60841)
T3 sequence (O60841 whole entry): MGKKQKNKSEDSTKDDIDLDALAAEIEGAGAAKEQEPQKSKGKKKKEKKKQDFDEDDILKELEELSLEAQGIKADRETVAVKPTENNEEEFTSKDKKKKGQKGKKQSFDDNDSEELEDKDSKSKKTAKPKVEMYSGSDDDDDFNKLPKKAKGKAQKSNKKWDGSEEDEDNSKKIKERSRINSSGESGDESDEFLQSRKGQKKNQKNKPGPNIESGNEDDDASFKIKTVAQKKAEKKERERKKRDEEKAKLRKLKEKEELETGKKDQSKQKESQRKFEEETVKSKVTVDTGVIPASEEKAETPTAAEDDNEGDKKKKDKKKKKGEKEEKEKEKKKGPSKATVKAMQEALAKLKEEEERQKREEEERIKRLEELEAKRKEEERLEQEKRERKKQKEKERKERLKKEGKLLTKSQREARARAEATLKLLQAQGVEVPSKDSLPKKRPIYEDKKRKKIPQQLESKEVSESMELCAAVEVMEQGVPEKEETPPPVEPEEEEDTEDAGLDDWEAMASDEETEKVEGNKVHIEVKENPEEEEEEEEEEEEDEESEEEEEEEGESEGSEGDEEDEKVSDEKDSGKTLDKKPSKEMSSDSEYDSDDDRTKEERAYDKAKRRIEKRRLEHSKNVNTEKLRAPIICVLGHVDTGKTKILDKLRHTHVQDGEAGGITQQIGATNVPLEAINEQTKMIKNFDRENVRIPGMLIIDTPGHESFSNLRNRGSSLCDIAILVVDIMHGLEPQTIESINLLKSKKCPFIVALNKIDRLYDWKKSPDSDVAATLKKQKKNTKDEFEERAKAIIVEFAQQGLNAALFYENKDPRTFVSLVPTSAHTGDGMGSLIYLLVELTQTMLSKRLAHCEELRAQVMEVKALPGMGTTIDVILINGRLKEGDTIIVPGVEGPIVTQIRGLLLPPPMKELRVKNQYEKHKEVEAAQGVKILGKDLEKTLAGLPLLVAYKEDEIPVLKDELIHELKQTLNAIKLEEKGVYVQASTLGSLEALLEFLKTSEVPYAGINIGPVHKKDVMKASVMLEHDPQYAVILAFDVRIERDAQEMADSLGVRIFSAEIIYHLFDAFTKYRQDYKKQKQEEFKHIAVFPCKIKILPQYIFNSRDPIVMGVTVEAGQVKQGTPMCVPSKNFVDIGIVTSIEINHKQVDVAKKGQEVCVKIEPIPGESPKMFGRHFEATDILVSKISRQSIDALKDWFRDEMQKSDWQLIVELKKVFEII

Measured: Kd
Note: in the data inactive means no Kd found up to 30 µM.

Sequence of Myosin-10 (P35580 whole entry): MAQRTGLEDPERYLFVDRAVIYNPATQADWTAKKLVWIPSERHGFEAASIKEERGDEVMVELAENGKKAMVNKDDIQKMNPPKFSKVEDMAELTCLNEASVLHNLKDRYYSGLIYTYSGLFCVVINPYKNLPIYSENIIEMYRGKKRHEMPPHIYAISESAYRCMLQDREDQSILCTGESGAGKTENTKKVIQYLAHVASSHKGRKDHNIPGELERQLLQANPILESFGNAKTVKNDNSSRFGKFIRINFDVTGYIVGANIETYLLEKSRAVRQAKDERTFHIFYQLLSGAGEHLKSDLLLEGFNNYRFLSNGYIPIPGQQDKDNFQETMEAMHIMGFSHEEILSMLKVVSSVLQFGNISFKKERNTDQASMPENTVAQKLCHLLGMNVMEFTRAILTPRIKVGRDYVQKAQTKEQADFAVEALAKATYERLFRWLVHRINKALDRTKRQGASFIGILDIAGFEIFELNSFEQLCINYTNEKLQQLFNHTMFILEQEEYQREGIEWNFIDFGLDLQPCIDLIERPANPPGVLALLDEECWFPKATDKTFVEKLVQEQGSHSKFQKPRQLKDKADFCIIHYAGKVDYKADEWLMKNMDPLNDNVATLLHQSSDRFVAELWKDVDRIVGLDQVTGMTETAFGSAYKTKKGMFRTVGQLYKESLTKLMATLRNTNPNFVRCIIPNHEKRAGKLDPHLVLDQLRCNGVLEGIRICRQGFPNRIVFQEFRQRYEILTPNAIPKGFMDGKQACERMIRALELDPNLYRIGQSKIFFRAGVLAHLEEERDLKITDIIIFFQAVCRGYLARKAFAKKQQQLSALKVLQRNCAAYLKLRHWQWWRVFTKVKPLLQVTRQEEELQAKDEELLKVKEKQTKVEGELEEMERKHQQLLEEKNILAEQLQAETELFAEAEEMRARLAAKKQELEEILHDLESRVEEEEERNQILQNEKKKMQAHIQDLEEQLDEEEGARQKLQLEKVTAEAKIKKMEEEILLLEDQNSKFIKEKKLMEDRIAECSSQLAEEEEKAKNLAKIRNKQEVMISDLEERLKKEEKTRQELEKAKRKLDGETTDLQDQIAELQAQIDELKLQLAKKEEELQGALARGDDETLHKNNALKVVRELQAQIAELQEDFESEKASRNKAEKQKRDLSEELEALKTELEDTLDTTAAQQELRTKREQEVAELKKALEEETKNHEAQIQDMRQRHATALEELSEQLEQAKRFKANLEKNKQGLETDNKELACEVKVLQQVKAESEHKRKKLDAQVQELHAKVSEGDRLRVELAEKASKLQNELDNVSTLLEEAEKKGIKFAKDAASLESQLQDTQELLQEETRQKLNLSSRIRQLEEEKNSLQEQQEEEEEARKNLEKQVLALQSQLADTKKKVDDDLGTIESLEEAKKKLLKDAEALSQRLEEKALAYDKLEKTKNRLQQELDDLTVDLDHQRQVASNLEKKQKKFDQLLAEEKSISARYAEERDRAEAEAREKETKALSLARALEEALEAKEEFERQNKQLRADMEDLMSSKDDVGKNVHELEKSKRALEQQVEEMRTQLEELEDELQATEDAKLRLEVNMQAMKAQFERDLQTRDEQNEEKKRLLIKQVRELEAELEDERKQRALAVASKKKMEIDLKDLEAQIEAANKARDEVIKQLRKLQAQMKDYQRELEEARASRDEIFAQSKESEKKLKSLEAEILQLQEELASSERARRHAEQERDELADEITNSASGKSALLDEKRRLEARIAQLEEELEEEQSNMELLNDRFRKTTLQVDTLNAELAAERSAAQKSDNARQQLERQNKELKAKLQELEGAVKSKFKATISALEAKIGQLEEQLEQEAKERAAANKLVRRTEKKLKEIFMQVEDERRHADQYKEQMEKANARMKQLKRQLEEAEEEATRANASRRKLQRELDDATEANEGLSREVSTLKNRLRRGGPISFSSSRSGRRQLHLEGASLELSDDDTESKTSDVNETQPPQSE
Sequence of Dual specificity testis-specific protein kinase 2 (Q96S53 whole entry): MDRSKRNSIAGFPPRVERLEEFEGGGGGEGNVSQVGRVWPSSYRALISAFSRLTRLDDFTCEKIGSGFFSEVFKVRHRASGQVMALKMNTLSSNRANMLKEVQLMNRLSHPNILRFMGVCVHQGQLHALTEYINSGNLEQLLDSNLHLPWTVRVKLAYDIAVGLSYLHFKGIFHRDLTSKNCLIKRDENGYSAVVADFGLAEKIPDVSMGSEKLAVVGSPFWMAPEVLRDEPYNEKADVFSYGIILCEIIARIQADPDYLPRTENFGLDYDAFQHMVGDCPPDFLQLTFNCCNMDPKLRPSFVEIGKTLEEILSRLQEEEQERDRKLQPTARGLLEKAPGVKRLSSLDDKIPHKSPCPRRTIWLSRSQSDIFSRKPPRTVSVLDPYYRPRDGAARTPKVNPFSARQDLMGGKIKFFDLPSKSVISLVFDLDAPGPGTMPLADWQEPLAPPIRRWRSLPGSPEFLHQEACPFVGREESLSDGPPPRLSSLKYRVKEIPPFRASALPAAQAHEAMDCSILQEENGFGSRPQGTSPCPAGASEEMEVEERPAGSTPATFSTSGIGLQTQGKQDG
Sequence of Cell division cycle 7-related protein kinase (O00311 whole entry): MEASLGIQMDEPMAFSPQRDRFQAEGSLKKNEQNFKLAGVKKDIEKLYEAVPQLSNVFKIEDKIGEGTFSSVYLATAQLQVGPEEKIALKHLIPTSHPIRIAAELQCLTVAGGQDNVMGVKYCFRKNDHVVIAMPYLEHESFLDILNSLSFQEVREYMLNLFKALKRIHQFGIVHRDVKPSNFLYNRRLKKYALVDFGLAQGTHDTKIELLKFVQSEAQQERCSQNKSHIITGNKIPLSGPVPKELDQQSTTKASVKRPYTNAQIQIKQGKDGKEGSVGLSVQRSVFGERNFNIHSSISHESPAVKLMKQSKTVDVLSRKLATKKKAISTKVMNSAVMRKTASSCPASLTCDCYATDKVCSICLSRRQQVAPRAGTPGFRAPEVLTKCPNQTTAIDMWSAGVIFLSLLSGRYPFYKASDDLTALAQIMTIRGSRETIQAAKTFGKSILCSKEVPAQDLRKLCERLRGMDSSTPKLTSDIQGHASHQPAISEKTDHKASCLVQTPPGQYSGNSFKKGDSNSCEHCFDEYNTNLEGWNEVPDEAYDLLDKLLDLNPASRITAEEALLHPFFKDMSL

Cc1cn(-c2cc(NC(=O)c3ccc(C)c(Nc4nccc(-c5cccnc5)n4)c3)cc(C(F)(F)F)c2)cn1 [NILOTINIB]
inactive: [1] > 30 µM | [2] > 30 µM | [3] > 30 µM | [4] > 30 µM | [5] > 30 µM | [6] > 30 µM
